Earlier results as cited in US20140072530A1, “TREATMENT OF HIV” (priority 2006, published 2014).

Key:
[1] = tested on: whole blood samples stimulated with LPS; conditions: LPS-stimulated whole blood of HIV patients; concentration-dependent
[2] = tested on: normal peripheral blood mononuclear cells (PBMC); conditions: induced by HIV envelope glycoprotein gp 120, normal PBMC

Substance	production of IL-1 [1]	production of TNF-α [1]	production of IL-1β [2]	production of TNF-α [2]
α-melanocyte-stimulating hormone [α-MSH (1-13), α-melanocyte-stimulating hormone [α-MSH (1-13)]]	reduced	reduced	inhibit	inhibit
ACTH (1-24): Melanocortin peptide, fragment 1-24 of adrenocorticotropic hormone (SYSMEHFRWGKPVGKKRRPVKVYP; Corticotropin; UniProt P01189 138-161, looked up, fragment)	reduced	reduced		
adrenocorticotropic hormone [ACTH (1-39] (SYSMEHFRWGKPVGKKRRPVKVYPNGAEDESAEAFPLEF; Corticotropin; UniProt P01189 138-176, looked up) [ACTH (1-39), Proopiomelanocortin-derived melanocortin peptide]	reduced	reduced		
